Assay results reported in patent US8324264B1, “Inhibitors of bacterial biofilms and related methods” (Sequoia Sciences, Inc., priority 2011, dated 2012).
In brackets after ≈: the same amount, converted by molar mass.

Columns and labels:
[1] = system: E. coli biofilms; assay: Biofilm growth assay (spreading biofilm on semi-solid agar), E. coli; assay type: cell-based; conditions: biofilm growth assay, overnight 37° C., vs negative controls, Tables 1-5; for IC85: Escherichia coli, read-out: E. coli: concentration that reduces the area of the spreading biofilm by greater than or equal to 85%
How it was run: (§1)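 Values are compound concentrations (μg/ml) that cut the spreading-biofilm zone area by ≥85% relative to negative controls after overnight 37 °C growth from 5 μL central inoculum. E. coli plates: LB, 0.6% agar, 0.5% glucose; P. aeruginosa plates: M8 agar plus 0.2% glucose, 100 μM CaCl2, 1 mM MgSO4, 0.5% Casamino acids.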

[2] = system: P. aeruginosa biofilms; assay: Biofilm growth assay (spreading biofilm on semi-solid agar), P. aeruginosa; assay type: cell-based; conditions: biofilm growth assay, overnight 37° C., vs negative controls, Tables 1-5; for IC85: Pseudomonas aeruginosa, read-out: P. aeruginosa: concentration that reduces the area of the spreading biofilm by greater than or equal to 85%
How it was run: as §1

Row | Structure (SMILES) | E. coli: concentration that reduces the area of the spreading biofilm by greater than or equal to 85% [1] [µg/mL] | P. aeruginosa: concentration that reduces the area of the spreading biofilm by greater than or equal to 85% [2] [µg/mL] | IC85 [1] [µg/mL] | IC85 [2] [µg/mL]
1 | CC1(C)CC[C@]2(C(=O)O)CC[C@]3(C)C(=C(c4ccc(N5CCNCC5)nc4)CC4[C@@]5(C)Cc6c(n[nH]c6N)C(C)(C)C5CC[C@]43C)C2C1 (stereo partly drawn) [Example 55, (4aS,6aS,6bR,13aR)-12-Amino-2,2,6a,6b,9,9,13a-heptamethyl-15-(6-(piperazin-1-yl)pyridin-3-yl)-2,3,4,4a,5,6,6a,6b,7,8,8a,9,11,13,13a,13b,14,15b-octadecahydro-1H-chryseno[1,2-f]indazole-4-a-carboxylic acid] | 2 | >1 | – | –
2 | CN(C)c1ccc(C2=C3[C@@H]4CC(C)(C)CC[C@]4(C(=O)O)CC[C@@]3(C)[C@]3(C)CC[C@H]4C(C)(C)c5n[nH]c(N)c5C[C@]4(C)C3C2)cc1 (stereo partly drawn) [Example 10, (4aS,6aS,6bR,13aR)-12-Amino-15-(4-(dimethylamino)phenyl)-2,2,6a,6b,9,9,13a-heptamethyl-2,3,4,4a,5,6,6a,6b,7,8,8a,9,11,13,13a,13b,14,15b-octadecahydro-1H-chryseno[1,2-f]indazole-4-a-carboxylic acid] | – | – | 1 (≈ 1.63 µM) | 0.5 (≈ 0.816 µM)
3 | CC1(C)CC[C@]2(c3n[nH]c(O)c3CCO)CC[C@]3(C)C(=CCC4[C@@]5(C)Cc6c(n[nH]c6N)C(C)(C)C5CC[C@]43C)C2C1 (stereo partly drawn) [Compound 81, 3-((4aS,6aS,6bR,13aR)-12-Amino-2,2,6a,6b,9,9,13a-heptamethyl-2,3,4,4a,5,6,6a,6b,7,8,8a,9,11,13,13a,13b,14,15b-octadecahydro-1H-chryseno[1,2-f]indazol-4-a-yl)-4-(2-hydroxyethyl)-1H-pyrazol-5-ol] | 1 | 0.5 | – | –
4 | CC1(C)CC[C@]2(C(=O)Nc3nnc(S(N)(=O)=O)s3)CC[C@]3(C)C(=CCC4[C@@]5(C)Cc6c(n[nH]c6N)C(C)(C)C5CC[C@]43C)C2C1 (stereo partly drawn) [Compound 80, (4aS,6aS,6bR,13aR)-12-Amino-2,2,6a,6b,9,9,13a-heptamethyl-N-(5-sulfamoyl-1,3,4-thiadiazol-2-yl)-2,3,4,4a,5,6,6a,6b,7,8,8a,9,11,13,13a,13b,14,15b-octadecahydro-1H-chryseno[1,2-f]indazole-4-a-carboxamide] | 1 | 1 | – | –
5 | CC1(C)CC[C@]2(C(=O)O)CC[C@]3(C)C(=C(c4ccc5[nH]ccc5c4)CC4[C@@]5(C)Cc6c(n[nH]c6N)C(C)(C)C5CC[C@]43C)C2C1 (stereo partly drawn) [Example 49, (4aS,6aS,6bR,13aR)-12-Amino-15-(1H-indol-5-yl)-2,2,6a,6b,9,9,13a-heptamethyl-2,3,4,4a,5,6,6a,6b,7,8,8a,9,11,13,13a,13b,14,15b-octadecahydro-1H-chryseno[1,2-f]indazole-4-a-carboxylic acid] | >1 | 0.5 | – | –
6 | CC1(C)CC[C@]2(C(=O)O)CC[C@]3(C)C(=C(c4cccc(F)c4)CC4[C@@]5(C)Cc6c(n[nH]c6N)C(C)(C)[C@@H]5CC[C@]43C)[C@@H]2C1 (stereo partly drawn) [Example 17, (4aS,6aS,6bR,8aR,13aR,15bS)-12-Amino-15-(3-fluorophenyl)-2,2,6a,6b,9,9,13a-heptamethyl-2,3,4,4a,5,6,6a,6b,7,8,8a,9,11,13,13a,13b,14,15b-octadecahydro-1H-chryseno[1,2-f]indazole-4-a-carboxylic acid] | >2 | 0.5 | – | –
7 | CC1(C)CC[C@]2(c3n[nH]c(O)c3N3CCOCC3)CC[C@]3(C)C(=CCC4[C@@]5(C)Cc6c(n[nH]c6N)C(C)(C)[C@@H]5CC[C@]43C)[C@@H]2C1 (stereo partly drawn) [Compound 88, 3-((4aS,6aS,6bR,13aR)-12-Amino-2,2,6a,6b,9,9,13a-heptamethyl-2,3,4,4a,5,6,6a,6b,7,8,8a,9,11,13,13a,13b,14,15b-octadecahydro-1H-chryseno[1,2-f]indazol-4-a-yl)-4-morpholino-1H-pyrazol-5-ol] | – | – | 0.5 (≈ 0.811 µM) | 0.25 (≈ 0.405 µM)
8 | CN(C)c1[nH]nc2c1C[C@@]1(C)C(CC[C@]3(C)C1CC=C1C4CC(C)(C)CC[C@]4(C(=O)O)CC[C@]13C)C2(C)C (stereo partly shown) [J] | – | – | > 16 | > 16
9 | CC1(C)CC[C@]2(C(=O)O)CC[C@]3(C)C(=C(c4cccc(CN)c4)CC4[C@@]5(C)Cc6c(n[nH]c6N)C(C)(C)C5CC[C@]43C)C2C1 (stereo partly drawn) [Example 18, (4aS,6aS,6bR,13aR)-12-Amino-15-(3-(aminomethyl)phenyl)-2,2,6a,6b,9,9,13a-heptamethyl-2,3,4,4a,5,6,6a,6b,7,8,8a,9,11,13,13a,13b,14,15b-octadecahydro-1H-chryseno[1,2-f]indazole-4-a-carboxylic acid] | 1 | 0.5 | – | –
10 | CC1(C)CC[C@]2(C(=O)O)CC[C@]3(C)C(=C(c4cccc5c4CCNC5)CC4[C@@]5(C)Cc6c(n[nH]c6N)C(C)(C)C5CC[C@]43C)C2C1 (stereo partly drawn) [Example 47, (4aS,6aS,6bR,13aR)-12-Amino-2,2,6a,6b,9,9,13a-heptamethyl-15-(1,2,3,4-tetrahydroisoquinolin-5-yl)-2,3,4,4a,5,6,6a,6b,7,8,8a,9,11,13,13a,13b,14,15b-octadecahydro-1H-chryseno[1,2-f]indazole-4-a-carboxylic acid] | 1 | 0.5 | – | –
11 | CC1(C)CC[C@]2(C(=O)Nc3cc(O)[nH]n3)CC[C@]3(C)C(=CCC4[C@@]5(C)Cc6c(n[nH]c6N)C(C)(C)C5CC[C@]43C)C2C1 (stereo partly drawn) [Compound 66, (4aS,6aS,6bR,13aR)-12-Amino-N-(5-hydroxy-1H-pyrazol-3-yl)-2,2,6a,6b,9,9,13a-heptamethyl-2,3,4,4a,5,6,6a,6b,7,8,8a,9,11,13,13a,13b,14,15b-octadecahydro-1H-chryseno[1,2-f]indazole-4-a-carboxamide] | – | – | 1 (≈ 1.74 µM) | 0.25 (≈ 0.435 µM)
12 | CC1(C)CC[C@]2(c3nnc(O)s3)CC[C@]3(C)C(=CCC4[C@@]5(C)Cc6c(n[nH]c6N)C(C)(C)C5CC[C@]43C)C2C1 (stereo partly drawn) [Compound 78, 5-((4aS,6aS,6bR,13aR)-12-Amino-2,2,6a,6b,9,9,13a-heptamethyl-2,3,4,4a,5,6,6a,6b,7,8,8a,9,11,13,13a,13b,14,15b-octadecahydro-1H-chryseno[1,2-f]indazol-4-a-yl)-1,3,4-thiadiazol-2-ol] | 1 | >1 | – | –
13 | CCC1=C2[C@@H]3CC(C)(C)CC[C@]3(C(=O)O)CC[C@@]2(C)[C@]2(C)CC[C@H]3C(C)(C)c4n[nH]c(N)c4C[C@]3(C)C2C1 (stereo partly drawn) [Example 14, (4aS,6aS,6bR,8aR,13aR,15bS)-12-Amino-15-ethyl-2,2,6a,6b,9,9,13a-heptamethyl-2,3,4,4a,5,6,6a,6b,7,8,8a,9,11,13,13a,13b,14,15b-octadecahydro-1H-chryseno[1,2-f]indazole-4-a-carboxylic acid] | – | – | 2 (≈ 3.83 µM) | 0.5 (≈ 0.958 µM)
14 | CC1(C)CC[C@]2(C(=O)O)CC[C@]3(C)C(=C(CO)CC4[C@@]5(C)Cc6c(n[nH]c6N)C(C)(C)[C@@H]5CC[C@]43C)[C@@H]2C1 (stereo partly shown) [N] | – | – | 8 (≈ 15.3 µM) | 8 (≈ 15.3 µM)
15 | CC1(C)CC[C@]2(C(=O)Sc3nnc(N)[nH]3)CC[C@]3(C)C(=CCC4[C@@]5(C)Cc6c(n[nH]c6N)C(C)(C)C5CC[C@]43C)C2C1 (stereo partly drawn) [Compound 70, (4aS,6aS,6bR,13aR)—S-5-Amino-4H-1,2,4-triazol-3-yl12-amino-2,2,6a,6b,9,9,13a-heptamethyl-2,3,4,4a,5,6,6a,6b,7,8,8a,9,11,13,13a,13b,14,15b-octadecahydro-1H-chryseno[1,2-f]indazole-4-a-carbothioate] | – | – | 2 (≈ 3.38 µM) | 0.5 (≈ 0.845 µM)
16 | CC1(C)CC[C@]2(C(=O)O)CC[C@]3(C)C(=C(c4coc(CN5CCOCC5)c4)CC4[C@@]5(C)Cc6c(n[nH]c6N)C(C)(C)[C@@H]5CC[C@]43C)[C@@H]2C1 (stereo partly drawn) [Example 40, (4aS,6aS,6bR,8aR,13aR,15bS)-12-Amino-2,2,6a,6b,9,9,13a-heptamethyl-15-(5-(morpholinomethyl)furan-3-yl)-2,3,4,4a,5,6,6a,6b,7,8,8a,9,11,13,13a,13b,14,15b-octadecahydro-1H-chryseno[1,2-f]indazole-4-a-carboxylic acid] | 2 | 0.5 | – | –
17 | CC1(C)CC[C@]2(c3n[nH]c(O)c3CCN)CC[C@]3(C)C(=CCC4[C@@]5(C)Cc6c(n[nH]c6N)C(C)(C)[C@@H]5CC[C@]43C)[C@@H]2C1 (stereo partly drawn) [Compound 84, 3-((4aS,6aS,6bR,13aR)-12-Amino-2,2,6a,6b,9,9,13a-heptamethyl-2,3,4,4a,5,6,6a,6b,7,8,8a,9,11,13,13a,13b,14,15b-octadecahydro-1H-chryseno[1,2-f]indazol-4-a-yl)-4-(2-aminoethyl)-1H-pyrazol-5-ol] | – | – | 0.5 (≈ 0.87 µM) | 0.125 (≈ 0.217 µM)
